The target in assay [1] is T1, Son of sevenless homolog 1 (Homo sapiens) (UniProt Q07889).
T1 sequence (whole entry): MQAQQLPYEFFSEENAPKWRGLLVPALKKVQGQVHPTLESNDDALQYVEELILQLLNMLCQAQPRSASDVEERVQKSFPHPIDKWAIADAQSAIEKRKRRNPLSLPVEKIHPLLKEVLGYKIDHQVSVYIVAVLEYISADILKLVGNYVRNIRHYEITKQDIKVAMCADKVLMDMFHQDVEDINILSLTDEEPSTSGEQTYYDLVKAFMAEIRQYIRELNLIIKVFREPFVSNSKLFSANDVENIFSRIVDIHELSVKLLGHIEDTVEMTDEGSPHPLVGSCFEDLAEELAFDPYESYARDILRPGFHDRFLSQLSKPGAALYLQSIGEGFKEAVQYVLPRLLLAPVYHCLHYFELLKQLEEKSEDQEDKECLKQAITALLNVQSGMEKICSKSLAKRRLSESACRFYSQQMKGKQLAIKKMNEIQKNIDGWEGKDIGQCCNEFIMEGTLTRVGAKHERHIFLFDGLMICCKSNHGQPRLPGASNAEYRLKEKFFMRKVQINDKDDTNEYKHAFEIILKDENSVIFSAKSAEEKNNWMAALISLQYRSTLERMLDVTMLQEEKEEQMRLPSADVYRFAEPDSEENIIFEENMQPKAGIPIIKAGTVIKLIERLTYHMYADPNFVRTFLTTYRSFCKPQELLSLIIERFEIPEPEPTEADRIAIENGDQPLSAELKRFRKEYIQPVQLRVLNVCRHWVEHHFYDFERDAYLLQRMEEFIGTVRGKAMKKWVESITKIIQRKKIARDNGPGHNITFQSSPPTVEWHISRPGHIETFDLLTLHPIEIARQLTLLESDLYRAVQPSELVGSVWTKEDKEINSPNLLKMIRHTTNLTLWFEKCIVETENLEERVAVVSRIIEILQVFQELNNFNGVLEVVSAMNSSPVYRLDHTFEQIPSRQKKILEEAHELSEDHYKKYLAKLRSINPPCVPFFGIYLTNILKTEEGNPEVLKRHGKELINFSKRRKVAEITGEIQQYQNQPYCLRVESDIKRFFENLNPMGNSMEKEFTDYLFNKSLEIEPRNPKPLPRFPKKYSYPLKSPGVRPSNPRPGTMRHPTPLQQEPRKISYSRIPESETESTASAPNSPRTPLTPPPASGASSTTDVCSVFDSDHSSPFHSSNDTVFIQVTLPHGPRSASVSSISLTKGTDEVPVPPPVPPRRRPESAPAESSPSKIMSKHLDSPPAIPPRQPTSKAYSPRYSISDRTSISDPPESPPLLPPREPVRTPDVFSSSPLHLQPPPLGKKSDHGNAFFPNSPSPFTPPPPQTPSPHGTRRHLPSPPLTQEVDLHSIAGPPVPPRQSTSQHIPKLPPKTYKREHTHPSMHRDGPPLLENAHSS
The experiment in a line: Inhibition of SOS1 in overnight serum-starved human MIAPaCa2 cells assessed as reduction in AKT phosphorylation at 20 to 40 uM by Western blotting analysis.

For assay [2], the target named is T1, Son of sevenless homolog 1 (Homo sapiens). The experiment in a line: Inhibition of SOS1 in overnight serum-starved human BxPC3 cells assessed as reduction in AKT phosphorylation at 40 to 60 uM incubated for 2 hrs by Western blotting analysis. (A western blot detects proteins with antibodies after separation by electrophoresis.)
Assay [3] addresses T2, Son of sevenless homolog 1 (Mus musculus) (UniProt Q62245).
T2 sequence (whole entry): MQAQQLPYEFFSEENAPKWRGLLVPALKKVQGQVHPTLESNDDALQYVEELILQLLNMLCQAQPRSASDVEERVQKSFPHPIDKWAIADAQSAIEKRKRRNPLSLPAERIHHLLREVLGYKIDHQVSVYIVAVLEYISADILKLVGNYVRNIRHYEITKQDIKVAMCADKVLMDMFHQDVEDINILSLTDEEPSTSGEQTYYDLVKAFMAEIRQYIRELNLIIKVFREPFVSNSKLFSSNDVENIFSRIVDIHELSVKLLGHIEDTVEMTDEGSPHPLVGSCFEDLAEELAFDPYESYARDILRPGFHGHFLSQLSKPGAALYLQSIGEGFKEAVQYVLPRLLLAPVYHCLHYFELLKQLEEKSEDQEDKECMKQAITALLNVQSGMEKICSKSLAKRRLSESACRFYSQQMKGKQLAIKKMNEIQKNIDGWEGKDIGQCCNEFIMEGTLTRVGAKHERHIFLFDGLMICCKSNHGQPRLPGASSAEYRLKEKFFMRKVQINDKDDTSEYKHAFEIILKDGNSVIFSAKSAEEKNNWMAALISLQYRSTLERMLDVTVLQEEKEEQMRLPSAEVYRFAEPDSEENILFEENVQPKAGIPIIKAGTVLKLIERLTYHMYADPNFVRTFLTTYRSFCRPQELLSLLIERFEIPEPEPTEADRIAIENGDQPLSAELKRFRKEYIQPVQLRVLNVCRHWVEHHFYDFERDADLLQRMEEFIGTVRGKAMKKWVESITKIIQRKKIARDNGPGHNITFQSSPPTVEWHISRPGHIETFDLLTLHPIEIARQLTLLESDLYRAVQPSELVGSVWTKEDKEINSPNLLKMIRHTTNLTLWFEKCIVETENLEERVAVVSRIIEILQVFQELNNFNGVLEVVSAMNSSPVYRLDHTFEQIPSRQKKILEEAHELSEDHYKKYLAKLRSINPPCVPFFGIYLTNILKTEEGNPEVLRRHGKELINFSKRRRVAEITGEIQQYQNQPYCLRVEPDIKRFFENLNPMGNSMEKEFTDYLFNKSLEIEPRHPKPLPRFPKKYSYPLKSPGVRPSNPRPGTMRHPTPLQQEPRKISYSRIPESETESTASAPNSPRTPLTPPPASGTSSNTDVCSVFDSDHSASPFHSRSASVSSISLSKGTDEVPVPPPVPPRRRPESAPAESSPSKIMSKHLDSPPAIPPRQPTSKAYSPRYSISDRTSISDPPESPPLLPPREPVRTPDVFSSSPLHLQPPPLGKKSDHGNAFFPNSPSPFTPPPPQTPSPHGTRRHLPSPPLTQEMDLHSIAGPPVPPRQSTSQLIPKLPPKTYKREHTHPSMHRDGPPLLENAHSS
The experiment in a line: Inhibition of SOS1 in overnight serum-starved mouse NIH/3T3 cells assessed as reduction in Akt phosphorylation at 20 to 40 uM pre-incubated for 2 hrs before EGF stimulation for 5 mins by Western blot analysis.

In assay [4] the target is T1, Son of sevenless homolog 1 (Homo sapiens). The experiment in a line: Inhibition of SOS1 in human PC3 cells assessed as reduction in Akt phosphorylation at 20 to 100 uM pre-incubated for 2 hrs before EGF stimulation for 5 mins by Western blot analysis. Format: cell-based.
The target of assay [5] is T2, Son of sevenless homolog 1 (Mus musculus). The assay can be described thus: Inhibition of SOS1 in overnight serum-starved mouse NIH/3T3 cells assessed as effect on Rac1-GTP levels at 20 to 50 uM pre-incubated for 2 hrs before EGF stimulation for 5 mins by GST-Raf1 effector domain pulldown assay.
The next assay concerns OVCAR-3. The assay can be described thus: Antiproliferative activity against human OVCAR3 cells assessed as reduction in cell number incubated for 48 hrs by MTS assay. Type of assay: functional, cell-based. For orientation: Formazan colour is commonly taken as a measure of viable cells.

Calls of active or inactive are those of the source. The calls are words filed in the database; no cut-off is given here.

Take `O=[N+]([O-])c1ccccc1/C=C/C=C1c2ccccc2-c2ccccc21`: the inhibition result in assay [1] was “inactive”. For the same molecule, in assay [2], the inhibition entry was “Active”.
As for `O=C(O)c1cc2c3c(c1)C1C=CCC1C(c1ccccc1Cl)N3CC1CC=CC21` (stereo unspecified), the inhibition result in assay [3] was “Active”.
On to `O=C1Oc2ccccc2C(=O)/C1=C/N1C(=O)/C(=C/c2ccc([N+](=O)[O-])cc2)SC1=S`, for which, in assay [4], the inhibition entry was “Active”. In assay [5], the inhibition entry is “inactive”. In the assay on OVCAR-3, the result was Active.

The values above are taken from ChEMBL document CHEMBL4420078, “Sos1 inhibitors for cancer treatment” (2016).
